According to patent publication US20210253598A1, “ARYL ANNULATED MACROCYCLIC INDOLE DERIVATIVES” (priority 2017, published 2021):
Where “and” joins values, the source holds several entries; their conditions need not be identical. Equal values may be shown once. Where a name gives a salt, the structure may show the parent alone. Read-outs that look alike come from different tables or passages of the source.

How the values were obtained:
SUDHL5 [1] = assay: Induction of cytotoxicity in SUDHL5 cells, CellTiter-Glo (Assay 6); format: cell-based; settings: SUDHL5, 5 hours incubation, median, read-out: Cytotox SUDHL5 [M] (median)
Summary of the method: (§1)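 Cells plated and held overnight at 37 °C, then compound-treated for 5 h at 37 °C. Viability measured by CellTiter-Glo luminescence after 15 min shaking at room temperature; cell-free medium as background control.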

SUDHL10 [2] = assay: Induction of cytotoxicity in SUDHL10 cells, CellTiter-Glo (Assay 6); format: cell-based; settings: SUDHL10, 5 hours incubation, median, read-out: Cytotox SUDHL10 [M] (median)
Summary of the method: as §1

MCL-1 = MCL-1 (Homo sapiens, UniProt Q07820, K194A/K197A/R201A); assay: Protein-protein interaction assay MCL-1/Noxa BH3 peptide, TR-FRET (MCL-1 assay, Assay 1); format: binding; settings: MBP-MCL-1 / Noxa BH3 peptide
Chain of MCL-1 (Q07820 173-321 K194A/K197A/R201A, looked up): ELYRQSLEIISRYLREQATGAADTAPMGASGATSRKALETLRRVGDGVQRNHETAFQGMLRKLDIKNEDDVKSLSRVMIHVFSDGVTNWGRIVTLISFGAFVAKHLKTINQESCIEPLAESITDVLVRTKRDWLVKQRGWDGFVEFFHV
Summary of the method: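 Human MBP-fused MCL-1 (aa 173-321; 1 nM final) was pre-incubated 10 min at 22 °C with compound in pH 7 Tris buffer containing NaCl, KF, Tween-20, DTT and BGG. Displacement of biotinylated Noxa BH3 peptide was read by TR-FRET (anti-MBP-Eu cryptate/streptavidin-XL665) after 1 h at 22 °C plus overnight at 4 °C. IC50 came from four-parameter fits against DMSO controls.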

BCL-2 = BCL-2 (Homo sapiens, UniProt P10415); assay: Protein-protein interaction assay BCL-2/Bad BH3 peptide, TR-FRET (BCL-2 assay, Assay 3); format: binding; settings: His-BCL-2 / Bad BH3 peptide, median
Chain of BCL-2 (P10415 1-211): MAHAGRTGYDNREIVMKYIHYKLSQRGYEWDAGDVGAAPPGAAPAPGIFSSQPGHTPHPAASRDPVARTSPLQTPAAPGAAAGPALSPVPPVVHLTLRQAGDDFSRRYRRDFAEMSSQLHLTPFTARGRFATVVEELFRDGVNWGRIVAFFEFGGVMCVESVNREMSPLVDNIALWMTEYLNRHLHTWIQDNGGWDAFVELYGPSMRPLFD
Method: The dose-dependent inhibition by the compounds described in this invention of the interaction between BCL-2 and the BH3 domain of Bad (both human) was determined using a steady state binding competition assay with time-resolved fluorescence energy transfer (TR-FRET) readout. For that purpose BCL-2 (amino acids 1-211, C-terminal fused to a hexahistidine (6×His) tag (SEQ ID 5) and a synthetic Bad BH3-derived peptide of sequence Biotin-PEG2-PEG2-[sequence]-Nle-[sequence]-amide (SEQ ID 4) served as protein receptor and tracer ligand respectively. The recombinant BCL-2 protein (expressed in E. coli) was purchased from BPS Bioscience (San Diego, Calif., USA). The Bad BH3-derived peptide can be obtained from e.g. Biosyntan (Berlin, Germany).
For that, 100-fold concentrated DMSO solutions were prepared by serial dilutions (1:3.4) of a 2 mM stock solution in a clear, 384-well microtiter plate (Greiner Bio-One, Frickenhausen, Germany). From there, 50 nl were transferred in a dark test plate (Greiner Bio-One, Frickenhausen, Germany). The assay was initiated by addition of 2 μl of a 2,5-fold concentrated His-BCL-2 solution (usually for a 1 nM end concentration in 5 μl reaction volume) in aqueous assay buffer [50 mM Tris/HCl pH 7, 100 mM sodium chloride (NaCl), 50 mM potassium fluoride (KF), 0.005% Tween-20, 2 mM DTT, 0.1% bovine gamma globulin (BGG)] to the compounds in the assay plate. This was followed by a 10-minute incubation step at 22° C. for pre-equilibration of the putative complex between His-BCL-2 and the compounds.
The mixture was incubated in the dark for one hour at 22° C. and then overnight at 4° C. The formation of BCL-2/Bad complexes was determined by measuring the resonance energy transfer of the anti-His-Eu-cryptate antibody to the streptavidin-XL665 present in the reaction. For that purpose, the fluorescence emission at 620 nm and 665 nm after excitation at 330-350 nm was measured in a TR-FRET measuring instrument, for instance a Rubystar or a Pherastar (both from BMG Lab Technologies, Offenburg, Germany) or a Viewlux (Perkin-Elmer). The ratio of the emission at 665 nm and at 622 nm was used as indicator of the amount of BCL-2/Bad complexes present.
The resulting data (ratio) were normalized, taking 0% inhibition as the mean value of control measurements (usually 32 data points) where all reagents were included. In this case 50 nl DMSO were used instead of compounds. […] IC50 values were determined by regression analysis based on a 4 parameter equation (minimum, maximum, IC50, Hill; Y=Max+(Min−Max)/(1+(X/IC50)^Hill) using the Screener Software (Genedata).

SUDHL5 [3] = assay: Induction of caspase-3/7 activity in SUDHL5 cells (Assay 4); format: cell-based
Summary of the method: (§2)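 DLBCL lines SUDHL5 and SUDHL10 were treated with compound for 3 h at 37 °C. Caspase-3/7 activity was then read by Caspase-Glo 3/7 luminescence after 1 h at 37 °C. Medium-only background was subtracted and values were normalized to the mean of DMSO-treated cells.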

SUDHL5 [4] = assay: Anti-proliferative effect in SUDHL5 cells, CellTiter-Glo (Assay 7); format: cell-based
Summary of the method: (§3)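 Proliferation is measured as luminescence from CellTiter-Glo after cells grow with compound for 72 h in a humidified 37 °C incubator. A reference plate read at time zero supplies the day 0 baseline, and DMSO wells serve as control for IC50 calculation.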

SUDHL10 [5] = assay: Induction of caspase-3/7 activity in SUDHL10 cells (Assay 4); format: cell-based
Summary of the method: as §2

MV-4-11 = assay: Anti-proliferative effect in MV-4-11 cells, CellTiter-Glo (Assay 7); format: cell-based
Summary of the method: as §3

[6] = SUDHL5, 3 hours treatment, Caspase-Glo 3/7, median, read-out: Caspase SUDHL5 [M] (median)
[7] = SUDHL5, 72 hours incubation, CellTiter-Glo, median, read-out: Antiproli SUDHL5 [M] (median)
[8] = SUDHL10, 3 hours treatment, Caspase-Glo 3/7, median, read-out: Caspase SUDHL10 [M] (median)
[9] = read-out: Antiproli SUDHL5 [M] (median), SUDHL5, 72 hours incubation, CellTiter-Glo
[10] = read-out: Antiproli MV-4-11; MV-4-11, 72 hours incubation, CellTiter-Glo; several values per example
[11] = read-out: Caspase SUDHL10 [M] (median), SUDHL10, 3 hours treatment, Caspase-Glo 3/7
[12] = MV-4-11, 72 hours incubation, CellTiter-Glo; several values per example; read-out: Antiproli MV-4-11
[13] = read-out: Caspase SUDHL5 [M] (median), SUDHL5, 3 hours treatment, Caspase-Glo 3/7
[14] = Homo sapiens, SU-DHL-5, 3 h, SUDHL5, 3 hours treatment, Caspase-Glo 3/7, median, read-out: Caspase SUDHL5 [M] (median)
[15] = Homo sapiens, SU-DHL-5, 72 h, SUDHL5, 72 hours incubation, CellTiter-Glo, median, read-out: Antiproli SUDHL5 [M] (median)
[16] = Homo sapiens, MV4-11, 72 h, MV-4-11, 72 hours incubation, CellTiter-Glo; several values per example; read-out: Antiproli MV-4-11
[17] = Homo sapiens, SU-DHL10, 3 h, SUDHL10, 3 hours treatment, Caspase-Glo 3/7, median, read-out: Caspase SUDHL10 [M] (median)

SMILES	IC50 (SUDHL5 [1]) [M]	IC50 (SUDHL10 [2]) [M]	IC50 (MCL-1; MCL-1 Assay [M] (median))	IC50 (BCL-2) [µM]	EC50 (SUDHL5 [3]; [6]) [M]	IC50 (SUDHL5 [4]; [7]) [M]	EC50 (SUDHL10 [5]; [8]) [M]	EC50 (SUDHL5 [3]; Homo sapiens, SU-DHL-5, 3 h, read-out: Caspase SUDHL5 [M] (median), SUDHL5, 3 hours treatment, Caspase-Glo 3/7)	IC50 (SUDHL5 [4]; [9]) [M]	IC50 (MV-4-11; [10]) [µM]	EC50 (SUDHL10 [5]; [11]) [M]	IC50 (MV-4-11; [12])	EC50 (SUDHL5 [3]; [13]) [M]	IC50 (SUDHL5 [1]; Homo sapiens, SU-DHL-5, 5 h) [M]	IC50 (SUDHL10 [2]; Homo sapiens, SU-DHL10, 5 h) [M]	EC50 (SUDHL5 [3]; [14]) [M]	IC50 (SUDHL5 [4]; [15]) [M]	IC50 (MV-4-11; [16]) [µM]	EC50 (SUDHL10 [5]; [17]) [M]	IC50 (MCL-1; median, read-out: MCL-1 Assay [M] (median))
CCc1nn(CCN2CCOCC2)c2c1-c1c(Cl)ccc3c(CCCOc4cccc5cc(F)ccc45)c(C(=O)O)n(c13)Cc1ccccc1COC2 (single isomer, unassigned; enantiomer 1) [Example 52, (−)-3-Chloro-4-ethyl-17-{3-[(6-fluoronaphthalen-1-yl)oxy]propyl}-6-[2-(morpholin-4-yl)ethyl]-6,7,9,14-tetrahydroindolo[7,1-fg]pyrazolo[3,4-d][2,8]benzoxazacycloundecine-16-carboxylic Acid (Enantiomer 1)]	5.2e-07	8.8e-07	9.6e-10	> 20	4.9e-07	5.7e-07	7.1e-07													
CCc1c2c(nn1C)COCc1ccccc1Cn1c(C(=O)O)c(CCCOc3cccc4cc(F)ccc34)c3ccc(Cl)c-2c31 (single isomer, unassigned; enantiomer 1) [Example 55, (−)-3-Chloro-4-ethyl-17-{3-[(6-fluoronaphthalen-1-yl)oxy]propyl}-5-methyl-5,7,9,14-tetrahydro-indolo[7,1-fg]pyrazolo[3,4-d][2,8]benzoxazacycloundecine-16-carboxylic Acid N-ethylethanamine Salt (Enantiomer 1)]	6.4e-07	1.3e-06		18				6.6e-07	1e-06	0.964	8.7e-07									
Cc1c2c(nn1C)COCc1ccccc1Cn1c(C(=O)O)c(CCCOc3cccc4cc(F)ccc34)c3ccc(Cl)c-2c31 (single isomer, unassigned; enantiomer 2) [Example 50, (+)-3-Chloro-17-{3-[(6-fluoronaphthalen-1-yl)oxy]propyl}-4,5-dimethyl-5,7,9,14-tetrahydroindolo[7,1-fg]pyrazolo[3,4-d][2,8]benzoxazacycloundecine-16-carboxylic acid-N-ethylethanamine Salt (Enantiomer 2)]	9.3e-07	2.8e-06	1.4e-09		7.3e-07	1.5e-06	3.2e-06					2.21 µM and 3.07 µM and 2.53 µM								
CCc1c2c(nn1C)COCc1ccccc1Cn1c(C(=O)O)c(CCCOc3cccc4cc(F)ccc34)c3ccc(Cl)c-2c31 (single isomer, unassigned; enantiomer 2) [Example 56, (+)-3-Chloro-4-ethyl-17-{3-[(6-fluoronaphthalen-1-yl)oxy]propyl}-5-methyl-5,7,9,14-tetrahydro-indolo[7,1-fg]pyrazolo[3,4-d][2,8]benzoxazacycloundecine-16-carboxylic Acid N-ethylethanamine Salt (Enantiomer 2)]	1.6e-06	3.7e-06	3.2e-09						2.1e-06	2.77	5.4e-06		1.3e-06							
Cc1c2c(nn1C)COCc1ccccc1Cn1c(C(=O)O)c(CCCOc3cccc4cc(F)ccc34)c3ccc(Cl)c-2c31 (single isomer, unassigned; enantiomer 1) [Example 49, (−)-3-Chloro-17-{3-[(6-fluoronaphthalen-1-yl)oxy]propyl}-4,5-dimethyl-5,7,9,14-tetrahydroindolo[7,1-fg]pyrazolo[3,4-d][2,8]benzoxazacycloundecine-16-carboxylic acid-N-ethylethanamine Salt (Enantiomer 1)]			4.7e-10	≥ 21.8								3.41 µM and 3.78 µM		8.8e-07	1.6e-06	7.7e-07	1e-06	3.09	2.1e-06	
Cc1c2c(nn1C)COCc1ccccc1Cn1c(C(=O)O)c(CCCOc3cccc4cc(F)ccc34)c3ccc(F)c-2c31 (single isomer, unassigned; enantiomer 1) [Example 65, (−)-3-fluoro-17-{3-[(6-fluoronaphthalen-1-yl)oxy]propyl}-4,5-dimethyl-5,7,9,14-tetrahydroindolo[7,1-fg]pyrazolo[3,4-d][2,8]benzoxazacycloundecine-16-carboxylic acid-N-ethylethanamine Salt (Enantiomer 1)]	1e-06	2.1e-06	1.3e-09	16.9												8.1e-07	1.1e-06		2.1e-06	
Cc1c2c(nn1C)COCc1ncccc1Cn1c(C(=O)O)c(CCCOc3cccc4ccccc34)c3cccc-2c31 (single isomer, unassigned; enantiomer 1) [Example 8, 4,5-Dimethyl-17-[3-(naphthalen-1-yloxy)propyl]-5,7,9,14-tetrahydropyrazolo[4′,3′:9,10]-pyrido[2′,3′:3,4][1,6]oxazacycloundecino[8,7,6-hi]indole-16-carboxylic acid-N-ethylethanamine Salt (Enantiomer 1)]	3e-06	7.2e-06	1.5e-09	> 20	2.5e-06	3.2e-06	9.9e-06													
Cc1c2c(nn1C)COCc1ccccc1Cn1c(C(=O)O)c(CCCOc3cccc4cc(F)ccc34)c3ccc(Cl)c-2c31 (racemic) [Example 48, (rac)-3-Chloro-17-{3-[(6-fluoronaphthalen-1-yl)oxy]propyl}-4,5-dimethyl-5,7,9,14-tetrahydroindolo[7,1-fg]pyrazolo[3,4-d][2,8]benzoxazacycloundecine-16-carboxylic Acid]			5.9e-10									4.81 µM		1.4e-06	2.6e-06	1.1e-06	1.6e-06	4.13	3.1e-06	
Cc1c2c(nn1C)COCc1ccccc1Cn1c(C(=O)O)c(CCCOc3cccc4ccccc34)c3ccc(Cl)c-2c31 (single isomer, unassigned; enantiomer 1) [Example 37, (−)-3-Chloro-4,5-dimethyl-17-[3-(naphthalen-1-yloxy)propyl]-5,7,9,14-tetrahydroindolo[7,1-fg]pyrazolo[3,4-d][2,8]benzoxazacycloundecine-16-carboxylic Acid (Enantiomer 1)]	8.6e-07	2.7e-06	1.3e-09	> 20	8.4e-07		2.5e-06													
Cc1c2c(nn1C)COCc1ccccc1Cn1c(C(=O)O)c(CCCOc3cccc4ccccc34)c3ccc(F)c-2c31 (single isomer, unassigned; enantiomer 1) [Example 68, (−)-3-Fluoro-4,5-dimethyl-17-{3-[(naphthalen-1-yl)oxy]propyl}-5,7,9,14-tetrahydroindolo[7,1-fg]pyrazolo[3,4-d][2,8]benzoxazacycloundecine-16-carboxylic acid-N-ethylethanamine Salt (Enantiomer 1)]	1.9e-06	4.6e-06	3.2e-09	> 20					1.4e-06		1.1e-05		1.2e-06							
CCNCC.Cc1c2c(nn1C)COCc1ncccc1Cn1c(C(=O)O)c(CCCOc3cccc4ccccc34)c3ccc(Cl)c-2c31 (single isomer, unassigned; enantiomer 1) [Example 43, 3-Chloro-4,5-dimethyl-17-[3-(naphthalen-1-yloxy)propyl]-5,7,9,14-tetrahydropyrazolo-[4′,3′:9,10]pyrido[2′,3′:3,4][1,6]oxazacycloundecino[8,7,6-hi]indole-16-carboxylic acid-N-ethylethanamine Salt (Enantiomer 1)]	1.4e-06	2.9e-06		> 20	1.2e-06	1.2e-06	3.7e-06					3.23 µM and 2.83 µM and 4.42 µM								5.1e-10
